Experimental data published in PMC9558907, “Synthesis and pharmacological evaluation of newly detected synthetic cannabinoid receptor agonists AB-4CN-BUTICA, MMB-4CN-BUTINACA, MDMB-4F-BUTICA, MDMB-4F-BUTINACA and their analogs” (Frontiers in Psychiatry, 2022).

Key:
[1] = molecular target: T1, human CB2 (Homo sapiens, UniProt P34972); experiment: fluorescence-based membrane potential assay (GIRK activation) in AtT20 cells; assay type: cell-based; parameters: expressed in transfected cells; host or cells: mouse AtT20 FlpIn cells; conditions: for hCB2 Emax ±SEM: normalised to 1 μM CP55,940
T1 sequence (P34972 whole entry): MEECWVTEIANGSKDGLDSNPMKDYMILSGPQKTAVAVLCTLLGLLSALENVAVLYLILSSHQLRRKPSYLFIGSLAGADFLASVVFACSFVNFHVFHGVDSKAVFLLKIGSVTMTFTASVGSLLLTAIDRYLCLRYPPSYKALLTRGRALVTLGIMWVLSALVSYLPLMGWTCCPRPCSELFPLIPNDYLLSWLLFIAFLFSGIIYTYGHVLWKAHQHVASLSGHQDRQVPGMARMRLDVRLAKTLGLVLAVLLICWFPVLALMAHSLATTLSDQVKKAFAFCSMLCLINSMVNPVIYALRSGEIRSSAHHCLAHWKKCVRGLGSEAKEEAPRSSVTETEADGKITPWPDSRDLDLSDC

[2] = molecular target: T2, human CB1 (Homo sapiens, UniProt P21554); experiment: competitive radioligand binding assay, displacement of [3H]CP55,940, HEK cell membranes; parameters: expressed in transfected cells; host or cells: HEK293 cells, P2 membrane preparation; conditions: [3H]CP55,940 1 nM
T2 sequence (P21554 whole entry): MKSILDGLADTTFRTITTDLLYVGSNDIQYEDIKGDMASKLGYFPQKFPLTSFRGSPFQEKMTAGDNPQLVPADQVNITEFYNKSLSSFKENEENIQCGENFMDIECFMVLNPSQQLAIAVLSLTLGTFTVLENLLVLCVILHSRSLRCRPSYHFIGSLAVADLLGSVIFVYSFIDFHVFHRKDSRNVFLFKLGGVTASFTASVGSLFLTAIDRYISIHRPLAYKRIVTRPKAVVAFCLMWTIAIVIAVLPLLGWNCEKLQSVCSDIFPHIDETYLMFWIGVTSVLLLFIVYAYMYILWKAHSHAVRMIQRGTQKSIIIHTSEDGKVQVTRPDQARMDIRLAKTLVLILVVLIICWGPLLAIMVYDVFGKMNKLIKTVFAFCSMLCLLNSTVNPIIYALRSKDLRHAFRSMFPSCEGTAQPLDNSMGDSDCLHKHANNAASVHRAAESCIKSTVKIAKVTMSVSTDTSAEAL

[3] = molecular target: T1, human CB2; experiment: as above; parameters: expressed in transfected cells; host or cells: HEK293 cells, P2 membrane preparation; conditions: [3H]CP55,940 1 nM
[4] = molecular target: T2, human CB1; experiment: fluorescence-based membrane potential assay (GIRK activation) in AtT20 cells; assay type: cell-based; parameters: expressed in transfected cells; host or cells: mouse AtT20 FlpIn cells; conditions: for hCB1 Emax ±SEM: normalised to 1 μM CP55,940; for hCB1 maximal response at 10 μM (footnote d): highest concentration tested, curve not fitted
[5] = hCB2 EC50, AtT20-hCB2, value in brackets after pEC50
[6] = hCB1 Ki, value in brackets after pKi
[7] = hCB2 Ki, value in brackets after pKi
[8] = hCB1 EC50, AtT20-hCB1, value in brackets after pEC50
[9] = hCB1 pEC50 ±SEM, AtT20-hCB1, DNC = did not converge, ND = < 50% change in fluorescence at 10 μM
[10] = hCB2 pKi ±SEM, mean ± SEM of 3 to 6 independent experiments
[11] = AtT20-hCB1, DNC = did not converge, ND = < 50% change in fluorescence at 10 μM
[12] = hCB1 pKi ±SEM, mean ± SEM of 3 to 6 independent experiments

CC(C)[C@H](NC(=O)c1cn(CCCCC#N)c2ccccc12)C(N)=O [Compound 5, (S)-N-(1-amino-3-methyl-1-oxobutan-2-yl)-1-(4-cyanobutyl)-1H-indole-3-carboxamide]
hCB2 Emax ±SEM ([1]; AtT20-hCB2): 100 ± 2 % CP55,940 | EC50 [1, 5]: 75.9 nM | Ki [2, 6]: 550 nM | Ki [3, 7]: 603 nM | hCB1 Emax ±SEM ([4]; AtT20-hCB1): 111 ± 5 % CP55,940 | EC50 [4, 8]: 400 nM | melting point: 177 to 180 °C

COC(=O)[C@@H](NC(=O)c1nn(CCCCC#N)c2ccccc12)C(C)C [Compound 6, methyl (1-(4-cyanobutyl)-1H-indazole-3-carbonyl)-L-valinate]
hCB2 Emax ±SEM ([1]; AtT20-hCB2): 101 ± 4 % CP55,940 | EC50 [1, 5]: 2.14 nM | Ki [2, 6]: 17.4 nM | Ki [3, 7]: 6.46 nM | hCB1 Emax ±SEM ([4]; AtT20-hCB1): 117 ± 6 % CP55,940 | EC50 [4, 8]: 3.61 nM

COC(=O)[C@@H](NC(=O)c1cn(CCCCF)c2ccccc12)C(C)(C)C [Compound 7, methyl (S)-2-(1-(4-fluorobutyl)-1H-indole-3-carboxamido)-3,3-dimethylbutanoate]
hCB2 Emax ±SEM ([1]; AtT20-hCB2): 110 ± 3 % CP55,940 | EC50 [1, 5]: 2.87 nM | Ki [2, 6]: 13.2 nM | hCB1 Emax ±SEM ([4]; AtT20-hCB1): 114 ± 3 % CP55,940 | EC50 [4, 8]: 3.43 nM | EC50 [4, 9]: 3.39 nM

COC(=O)[C@@H](NC(=O)c1nn(CCCCF)c2ccccc12)C(C)(C)C [Compound 8, methyl (S)-2-(1-(4-fluorobutyl)-1H-indazole-3-carboxamido)-3,3-dimethylbutanoate]
hCB2 Emax ±SEM ([1]; AtT20-hCB2): 103 ± 5 % CP55,940 | EC50 [1, 5]: 3.28 nM | Ki [2, 6]: 6.2 nM | Ki [3, 7]: 0.1 nM | Ki [3, 10]: 0.12 nM | hCB1 Emax ±SEM ([4]; AtT20-hCB1): 106 ± 3 % CP55,940 | EC50 [4, 9]: 0.407 nM

CC(C)(C)[C@H](NC(=O)c1cn(CCCCC#N)c2ccccc12)C(N)=O [Compound 9, (S)-N-(1-amino-3,3-dimethyl-1-oxobutan-2-yl)-1-(4-cyanobutyl)-1H-indole-3-carboxamide]
hCB2 Emax ±SEM ([1]; AtT20-hCB2): 106 ± 6 % CP55,940 | EC50 [1, 5]: 10.4 nM | Ki [2, 6]: 6.8 nM | Ki [3, 7]: 5.5 nM | hCB1 Emax ±SEM ([4]; AtT20-hCB1): 115 ± 5 % CP55,940 | EC50 [4, 8]: 10.2 nM | melting point: 101 to 103 °C

N#CCCCCn1cc(C(=O)N[C@@H](Cc2ccccc2)C(N)=O)c2ccccc21 [Compound 10, (S)-N-(1-amino-1-oxo-3-phenylpropan-2-yl)-1-(4-cyanobutyl)-1H-indole-3-carboxamide]
hCB2 Emax ±SEM ([1]; AtT20-hCB2): 95 ± 3 % CP55,940 | EC50 [1, 5]: 98.4 nM | Ki [2, 6]: 3310 nM | Ki [3, 7]: 776 nM | hCB1 maximal response at 10 μM (footnote d) ([4]; AtT20-hCB1): submaximal agonist activity | hCB1 maximal response at 10 μM (footnote d) ([4]; AtT20-hCB1, listed as APP-4CN-BUTICA (10)): 85 ± 3^d % CP55,940 | hCB1 pEC50 ±SEM [4, 11]: DNC^b | melting point: 84 to 85 °C

CC(C)[C@H](NC(=O)c1nn(CCCCC#N)c2ccccc12)C(N)=O [Compound 11, (S)-N-(1-amino-3-methyl-1-oxobutan-2-yl)-1-(4-cyanobutyl)-1H-indazole-3-carboxamide]
hCB2 Emax ±SEM ([1]; AtT20-hCB2): 103 ± 1 % CP55,940 | EC50 [1, 5]: 4.97 nM | Ki [2, 6]: 43.7 nM | Ki [3, 7]: 24 nM | hCB1 Emax ±SEM ([4]; AtT20-hCB1): 111 ± 5 % CP55,940 | EC50 [4, 8]: 26.3 nM

CC(C)(C)[C@H](NC(=O)c1nn(CCCCC#N)c2ccccc12)C(N)=O [Compound 12, (S)-N-(1-amino-3,3-dimethyl-1-oxobutan-2-yl)-1-(4-cyanobutyl)-1H-indazole-3-carboxamide]
hCB2 Emax ±SEM ([1]; AtT20-hCB2): 96 ± 2 % CP55,940 | EC50 [1, 5]: 1.76 nM | Ki [2, 6]: 8.13 nM | Ki [3, 7]: 2.57 nM | hCB1 Emax ±SEM ([4]; AtT20-hCB1): 109 ± 2 % CP55,940 | EC50 [4, 9]: 0.331 nM | melting point: 82 to 86 °C

N#CCCCCn1nc(C(=O)N[C@@H](Cc2ccccc2)C(N)=O)c2ccccc21 [Compound 13, (S)-N-(1-amino-1-oxo-3-phenylpropan-2-yl)-1-(4-cyanobutyl)-1H-indazole-3-carboxamide]
hCB2 Emax ±SEM ([1]; AtT20-hCB2): 107 ± 11 % CP55,940 | EC50 [1, 5]: 74.1 nM | Ki [2, 6]: 1100 nM | Ki [2, 12]: 1070 nM | Ki [3, 7]: 170 nM | Ki [3, 10]: 166 nM | hCB1 maximal response at 10 μM (footnote d) ([4]; AtT20-hCB1): 104 % CP55,940 | hCB1 maximal response at 10 μM (footnote d) ([4]; AtT20-hCB1, listed as APP-4CN-BUTINACA (13)): 104 ± 3^d % CP55,940 | hCB1 pEC50 ±SEM [4, 11]: DNC^b

CC(C)[C@H](NC(=O)c1cn(CCCCC#N)c2ncccc12)C(N)=O [Compound 14, (S)-N-(1-amino-3-methyl-1-oxobutan-2-yl)-1-(4-cyanobutyl)-1H-pyrrolo[2,3-b]pyridine-3-carboxamide]
hCB2 Emax ±SEM ([1]; AtT20-hCB2): 87 ± 5 % CP55,940 | EC50 [1, 5]: 390 nM | Ki [2, 6]: 2570 nM | Ki [3, 7]: 3240 nM | hCB1 maximal response at 10 μM (footnote d) ([4]; AtT20-hCB1): 80 ± 3^d % CP55,940 | hCB1 pEC50 ±SEM [4, 11]: DNC^b | melting point: 181 to 182 °C

CC(C)(C)[C@H](NC(=O)c1cn(CCCCC#N)c2ncccc12)C(N)=O [Compound 15, (S)-N-(1-amino-3,3-dimethyl-1-oxobutan-2-yl)-1-(4-cyanobutyl)-1H-pyrrolo[2,3-b]pyridine-3-carboxamide]
hCB2 Emax ±SEM ([1]; AtT20-hCB2): 96 ± 1 % CP55,940 | EC50 [1, 5]: 6.09 nM | Ki [2, 6]: 155 nM | Ki [3, 7]: 145 nM | hCB1 Emax ±SEM ([4]; AtT20-hCB1): 102 ± 4 % CP55,940 | EC50 [4, 8]: 14 nM | melting point: 93 to 94 °C

N#CCCCCn1cc(C(=O)N[C@@H](Cc2ccccc2)C(N)=O)c2cccnc21 [Compound 16, (S)-N-(1-amino-1-oxo-3-phenylpropan-2-yl)-1-(4-cyanobutyl)-1H-pyrrolo[2,3-b]pyridine-3-carboxamide]
hCB2 Emax ±SEM ([1]; AtT20-hCB2, listed as APP-4CN-BUT7AICA (16)): 72 ± 3 % CP55,940 | EC50 [1, 5]: 232 nM | EC50 ([1]; hCB2 pEC50 ±SEM, AtT20-hCB2): 229 nM | Ki [2, 12]: > 10000 nM | Ki [3, 7]: 1860 nM | hCB1 maximal response at 10 μM (footnote d) ([4]; AtT20-hCB1): submaximal agonist activity | hCB1 maximal response at 10 μM (footnote d) ([4]; AtT20-hCB1, listed as APP-4CN-BUT7AICA (16)): 25 ± 3^d % CP55,940 | melting point: 182 to 184 °C

COC(=O)[C@@H](NC(=O)c1cn(CCCCC#N)c2ccccc12)C(C)C [Compound 17, methyl (1-(4-cyanobutyl)-1H-indole-3-carbonyl)-L-valinate]
hCB2 Emax ±SEM ([1]; AtT20-hCB2): 95 ± 3 % CP55,940 | EC50 [1, 5]: 13.5 nM | Ki [2, 6]: 159 nM | Ki [3, 7]: 85.1 nM | hCB1 Emax ±SEM ([4]; AtT20-hCB1): 105 ± 3 % CP55,940 | EC50 [4, 8]: 50.8 nM

COC(=O)[C@@H](NC(=O)c1nn(CCCCC#N)c2ccccc12)C(C)(C)C [Compound 20, methyl (S)-2-(1-(4-cyanobutyl)-1H-indazole-3-carboxamido)-3,3-dimethylbutanoate]
hCB2 Emax ±SEM ([1]; AtT20-hCB2): 101 ± 2 % CP55,940 | EC50 [1, 5]: 3.56 nM | Ki [2, 6]: 1.29 nM | Ki [3, 7]: 0.295 nM | hCB1 Emax ±SEM ([4]; AtT20-hCB1): 113 ± 2 % CP55,940 | EC50 [4, 8]: 0.72 nM

COC(=O)[C@@H](NC(=O)c1cn(CCCCC#N)c2ncccc12)C(C)C [Compound 22, methyl (1-(4-cyanobutyl)-1H-pyrrolo[2,3-b]pyridine-3-carbonyl)-L-valinate]
hCB2 Emax ±SEM ([1]; AtT20-hCB2): 95 ± 4 % CP55,940 | EC50 [1, 5]: 68.3 nM | Ki [2, 6]: 1510 nM | Ki [3, 7]: 316 nM | hCB1 Emax ±SEM ([4]; AtT20-hCB1): 114 ± 7 % CP55,940 | EC50 [4, 8]: 430 nM

COC(=O)[C@@H](NC(=O)c1cn(CCCCC#N)c2ncccc12)C(C)(C)C [Compound 23, methyl (S)-2-(1-(4-cyanobutyl)-1H-pyrrolo[2,3-b]pyridine-3-carboxamido)-3,3-dimethylbutanoate]
hCB2 Emax ±SEM ([1]; AtT20-hCB2): 106± 5 % CP55,940 | EC50 [1, 5]: 12.6 nM | Ki [2, 6]: 9.2 nM | Ki [2, 12]: 9.33 nM | Ki [3, 7]: 2.4 nM | Ki [3, 10]: 2.45 nM | hCB1 Emax ±SEM ([4]; AtT20-hCB1): 114 ± 5 % CP55,940 | EC50 [4, 8]: 10.3 nM

CC(C)[C@H](NC(=O)c1cn(CCCCF)c2ncccc12)C(N)=O [Compound 31, (S)-N-(1-amino-3-methyl-1-oxobutan-2-yl)-1-(4-fluorobutyl)-1H-pyrrolo[2,3-b]pyridine-3-carboxamide]
hCB2 Emax ±SEM ([1]; AtT20-hCB2): 98 ± 4 % CP55,940 | EC50 [1, 5]: 137 nM | Ki [2, 12]: > 10000 nM | Ki [3, 7]: 1400 nM | Ki [3, 10]: 1380 nM | hCB1 maximal response at 10 μM (footnote d) ([4]; AtT20-hCB1): 82 ± 4^d % CP55,940 | hCB1 pEC50 ±SEM [4, 11]: DNC^b

COC(=O)[C@@H](NC(=O)c1nn(CCCCF)c2ccccc12)C(C)C [Compound 36, methyl (1-(4-fluorobutyl)-1H-indazole-3-carbonyl)-L-valinate]
hCB2 Emax ±SEM ([1]; AtT20-hCB2): 100 ± 2 % CP55,940 | EC50 [1, 5]: 3.76 nM | Ki [2, 12]: 31.6 nM | Ki [3, 7]: 1.6 nM | Ki [3, 10]: 1.55 nM | hCB1 Emax ±SEM ([4]; AtT20-hCB1): 103 ± 2 % CP55,940 | EC50 [4, 8]: 3.93 nM

COC(=O)[C@H](Cc1ccccc1)NC(=O)c1nn(CCCCF)c2ccccc12 [Compound 37, methyl (1-(4-fluorobutyl)-1H-indazole-3-carbonyl)-L-phenylalaninate]
hCB2 Emax ±SEM ([1]; AtT20-hCB2): 101 ± 3 % CP55,940 | EC50 [1, 5]: 4.65 nM | Ki [2, 12]: 33.9 nM | Ki [3, 7]: 0.5 nM | Ki [3, 10]: 0.457 nM | hCB1 Emax ±SEM ([4]; AtT20-hCB1): 106 ± 3 % CP55,940 | EC50 [4, 8]: 5.62 nM
